# Data as given in patent publication US20180170904A1, “PYRIDIN-3-YL ACETIC ACID DERIVATIVES AS INHIBITORS OF HUMAN IMMUNODEFICIENCY VIRUS REPLICATION” (priority 2015, published 2018).
# Test system: NL-RLuc virus (recombinant NL4-3 proviral clone with Renilla Luciferase gene)
# Assay: Inhibition of HIV replication (NL-RLuc reporter virus in MT-2 cells)
# Assay type: cell-based
# Settings: MT-2 cells infected with NL-RLuc virus, 5 days of incubation, luciferase readout; read-out: Activity
# Excerpt: Inhibition of HIV replication: A recombinant NL-RLuc proviral clone was constructed in which a section of the nef gene from NL4-3 was replaced with the Renilla Luciferase gene. This virus is fully infectious and can undergo multiple cycles of replication in cell culture. In addition, the luciferous reporter provides a simple and easy method for quantitating the extent of virus growth and consequently, the antiviral activity of test compounds. The plasmid pNLRLuc contains the proviral NL-Rluc DNA cloned into pUC18 at the PvuII site. The NL-RLuc virus was prepared by transfection of 293T cells with the plasmid pNLRLuc. Transfections were performed using the LipofectAMINE PLUS kit from Invitrogen (Carlsbad, Calif.) according to the manufacturer and the virus generated was titered in MT-2 cells. For susceptibility analyses, the titrated virus was used to infect MT-2 cells in the presence of compound, and after 5 days of incubation, cells were processed and quantitated for virus growth by the amount of expressed luciferase. Assay media was RPMI 1640 supplemented with 10% heat inactivated fetal bovine serum (FBS), 100 units/ml penicillin G/100 units/ml streptomycin, 10 mM HEPES buffer pH 7.55 and 2 mM L-glutamine. The results from at least 2 experiments were used to calculate the EC50 values. Luciferase was quantitated using the Dual Luciferase kit from Promega (Madison, Wis.). Susceptibility of viruses to compounds was determined by incubation in the presence of serial dilutions of the compound. The 50% effective concentration (EC50) was calculated by using the exponential form of the median effect equation where (Fa)=1/[1+(ED50/drug conc.)^m] (Johnson V A, Byington R T. Infectivity Assay. In Techniques in HIV Research. ed. Aldovini A, Walker B D. 71-76. New York: Stockton Press.1990). Activity equal to A refers to a compound having an EC50≤100 nM, while B and C denote compounds having an EC50 between 100 nM and 1 uM (B) or >1 uM (C).
row,Molecule,EC50 [µM]
1,"(S)-2-(tert-Butoxy)-2-(4-(4,4-dimethylpiperidin-1-yl)-5-(4-(1-(4-fluorobenzyl)-1H-tetrazol-5-yl)phenyl)-2,6-dimethylpyridin-3-yl)acetic acid and/or (S)-2-(tert-Butoxy)-2-(4-(4,4-dimethylpiperidin-1-yl)-5-(4-(2-(4-fluorobenzyl)-2H-tetrazol-5-yl)phenyl)-2,6-dimethylpyridin-3-yl)acetic acid [Example 86]",< 0.1
2,"(S)-2-(tert-Butoxy)-2-(4-(4,4-dimethylpiperidin-1-yl)-5-(3-(1-(4-fluorobenzyl)-1H-tetrazol-5-yl)phenyl)-2,6-dimethylpyridin-3-yl)acetic acid and/or (S)-2-(tert-Butoxy)-2-(4-(4,4-dimethylpiperidin-1-yl)-5-(3-(2-(4-fluorobenzyl)-2H-tetrazol-5-yl)phenyl)-2,6-dimethylpyridin-3-yl)acetic acid [Example 87]",< 0.1

# Same assay, conditions: Renilla, NL43, 120 h, read-out: Activity
row,Molecule,EC50 [µM]
1,"Cc1nc(C)c([C@H](OC(C)(C)C)C(=O)O)c(N2CCC(C)(C)CC2)c1-c1ccc(CCCO)cc1 [Example 31, (S)-2-(tert-Butoxy)-2-(4-(4,4-dimethylpiperidin-1-yl)-5-(4-(3-hydroxypropyl)phenyl)-2,6-dimethylpyridin-3-yl)acetic acid]",< 0.1
2,"Cc1nc(C)c([C@H](OC(C)(C)C)C(=O)O)c(N2CCC(C)(C)CC2)c1-c1cccc(C(C)C)c1 [Example 40, (S)-2-(tert-Butoxy)-2-(4-(4,4-dimethylpiperidin-1-yl)-5-(3-isopropylphenyl)-2,6-dimethylpyridin-3-yl)acetic acid]",< 0.1
3,"Cc1nc(C)c([C@H](OC(C)(C)C)C(=O)O)c(N2CCC(C)(F)CC2)c1-c1ccc(C(=O)NCc2ccccc2)cc1 [Example 65, (S)-2-(5-(4-(Benzylcarbamoyl)phenyl)-4-(4-fluoro-4-methylpiperidin-1-yl)-2,6-dimethylpyridin-3-yl)-2-(tert-butoxy)acetic acid]",< 0.1
4,"Cc1cccc(-c2ccc(-c3c(C)nc(C)c([C@H](OC(C)(C)C)C(=O)O)c3N3CCC(C)(C)CC3)cc2)c1 [Example 17, (S)-2-(tert-Butoxy)-2-(4-(4,4-dimethylpiperidin-1-yl)-2,6-dimethyl-5-(3′-methyl-[1,1′-biphenyl]-4-yl)pyridin-3-yl)acetic acid]",< 0.1
5,"Cc1nc(C)c([C@H](OC(C)(C)C)C(=O)O)c(N2CCC(C3CC3)C2)c1-c1ccc(C(=O)NCc2ccccc2)cc1 (stereo partly drawn) [Example 55, (2S)-2-(5-(4-(Benzylcarbamoyl)phenyl)-4-(3-cyclopropylpyrrolidin-1-yl)-2,6-dimethylpyridin-3-yl)-2-(tert-butoxy)acetic acid]",< 0.1
6,"Cc1nc(C)c([C@H](OC(C)(C)C)C(=O)O)c(N2CCC(C)(C)CC2)c1-c1ccc(S(=O)(=O)NC2CC2)cc1 [Example 35, (S)-2-(tert-Butoxy)-2-(5-(4-(N-cyclopropylsulfamoyl)phenyl)-4-(4,4-dimethylpiperidin-1-yl)-2,6-dimethylpyridin-3-yl)acetic acid]",0.1 to 1
7,"Cc1nc(C)c([C@H](OC(C)(C)C)C(=O)O)c(N2CCC(Cc3ccccc3)CC2)c1-c1ccc(C(=O)NCc2ccccc2)cc1 [Example 64, (S)-2-(5-(4-(Benzylcarbamoyl)phenyl)-4-(4-benzylpiperidin-1-yl)-2,6-dimethylpyridin-3-yl)-2-(tert-butoxy)acetic acid]",0.1 to 1
8,"Cc1nc(C)c([C@H](OC(C)(C)C)C(=O)O)c(N2CCC(C)(C)CC2)c1-c1ccc(-c2ncc(Cc3ccc(F)cc3)s2)cc1 [Example 3, (S)-2-(tert-Butoxy)-2-(4-(4,4-dimethylpiperidin-1-yl)-5-(4-(5-(4-fluorobenzyl)thiazol-2-yl)phenyl)-2,6-dimethylpyridin-3-yl)acetic acid]",< 0.1
9,"Cc1nc(C)c([C@H](OC(C)(C)C)C(=O)O)c(N2CCC(C)(C)CC2)c1-c1ccc(-c2ccc(Cl)cc2)cc1 [Example 11, (S)-2-(tert-Butoxy)-2-(5-(4′-chloro-[1,1′-biphenyl]-4-yl)-4-(4,4-dimethylpiperidin-1-yl)-2,6-dimethylpyridin-3-yl)acetic acid]",0.1 to 1
10,"Cc1nc(C)c([C@H](OC(C)(C)C)C(=O)O)c(N2CCC(C)(C)CC2)c1-c1ccc(-c2ncc(-c3ccc(F)cc3)s2)cc1 [Example 6, (S)-2-(tert-Butoxy)-2-(4-(4,4-dimethylpiperidin-1-yl)-5-(4-(5-(4-fluorophenyl)thiazol-2-yl)phenyl)-2,6-dimethylpyridin-3-yl)acetic acid]",< 0.1
11,"Cc1nc(C)c([C@H](OC(C)(C)C)C(=O)O)c(N2CCC(C)(C)CC2)c1-c1ccc(-c2nnn[nH]2)cc1 [Example 46, (S)-2-(5-(4-(1H-Tetrazol-5-yl)phenyl)-4-(4,4-dimethylpiperidin-1-yl)-2,6-dimethylpyridin-3-yl)-2-(tert-butoxy)acetic acid]",> 1
12,"Cc1nc(C)c([C@H](OC(C)(C)C)C(=O)O)c(N2CCC(C)(C)CC2)c1-c1ccc(SCCC(C)C)cc1 [Example 23, (S)-2-(tert-Butoxy)-2-(4-(4,4-dimethylpiperidin-1-yl)-5-(4-(isopentylthio)phenyl)-2,6-dimethylpyridin-3-yl)acetic acid]",< 0.1
13,"Cc1nc(C)c([C@H](OC(C)(C)C)C(=O)O)c(N2CCC(C)(C)CC2)c1-c1ccc(-c2ccccc2)c(F)c1 [Example 14, (S)-2-(tert-Butoxy)-2-(4-(4,4-dimethylpiperidin-1-yl)-5-(2-fluoro-[1,1′-biphenyl]-4-yl)-2,6-dimethylpyridin-3-yl)acetic acid]",< 0.1
14,"Cc1nc(C)c([C@H](OC(C)(C)C)C(=O)O)c(N2CCC(C)(C)CC2)c1-c1ccc(C(C)(C)C#N)cc1 [Example 36, (S)-2-(tert-Butoxy)-2-(5-(4-(2-cyanopropan-2-yl)phenyl)-4-(4,4-dimethylpiperidin-1-yl)-2,6-dimethylpyridin-3-yl)acetic acid]",< 0.1
15,"Cc1nc(C)c([C@H](OC(C)(C)C)C(=O)O)c(N2CCC(C)CC2)c1-c1ccc(C(=O)NCc2ccccc2)cc1 [Example 58, (S)-2-(5-(4-(Benzylcarbamoyl)phenyl)-2,6-dimethyl-4-(4-methylpiperidin-1-yl)pyridin-3-yl)-2-(tert-butoxy)acetic acid]",< 0.1
16,"Cc1nc(C)c([C@H](OC(C)(C)C)C(=O)O)c(N2CC(C(C)C)C2)c1-c1ccc(C(=O)NCc2ccccc2)cc1 [Example 59, (S)-2-(5-(4-(Benzylcarbamoyl)phenyl)-4-(3-isopropylazetidin-1-yl)-2,6-dimethylpyridin-3-yl)-2-(tert-butoxy)acetic acid]",> 1
17,"Cc1nc(C)c([C@H](OC(C)(C)C)C(=O)O)c(N2CCC(C)(C)CC2)c1-c1ccc(C(=O)NCCc2ccc(F)cc2)cc1 [Example 2, (S)-2-(tert-Butoxy)-2-(4-(4,4-dimethylpiperidin-1-yl)-5-(4-((4-fluorophenethyl)carbamoyl)phenyl)-2,6-dimethylpyridin-3-yl)acetic acid]",< 0.1
18,"CC(C)=C1CCN(c2c(-c3ccc(C(=O)NCc4ccccc4)cc3)c(C)nc(C)c2[C@H](OC(C)(C)C)C(=O)O)CC1 [Example 63, (S)-2-(5-(4-(Benzylcarbamoyl)phenyl)-2,6-dimethyl-4-(4-(propan-2-ylidene)piperidin-1-yl)pyridin-3-yl)-2-(tert-butoxy)acetic acid]",0.1 to 1
19,"Cc1nc(C)c([C@H](OC(C)(C)C)C(=O)O)c(N2CCC(C)(C)CC2)c1-c1ccc(CC(N)=O)cc1 [Example 26, (S)-2-(5-(4-(2-Amino-2-oxoethyl)phenyl)-4-(4,4-dimethylpiperidin-1-yl)-2,6-dimethylpyridin-3-yl)-2-(tert-butoxy)acetic acid]",0.1 to 1
20,"CCOC(=O)Nc1ccc(-c2c(C)nc(C)c([C@H](OC(C)(C)C)C(=O)O)c2N2CCC(C)(C)CC2)cc1 [Example 71, (S)-2-(tert-Butoxy)-2-(4-(4,4-dimethylpiperidin-1-yl)-5-(4-((ethoxycarbonyl)amino)phenyl)-2,6-dimethylpyridin-3-yl)acetic acid]",< 0.1
21,"Cc1nc(C)c([C@H](OC(C)(C)C)C(=O)O)c(N2CCC(C)(C)CC2)c1-c1ccc(-c2cccc3ccccc23)cc1 [Example 18, (S)-2-(tert-Butoxy)-2-(4-(4,4-dimethylpiperidin-1-yl)-2,6-dimethyl-5-(4-(naphthalen-1-yl)phenyl)pyridin-3-yl)acetic acid]",< 0.1
22,"Cc1nc(C)c([C@H](OC(C)(C)C)C(=O)O)c(N2CCC(C)(C)CC2)c1-c1ccc(N2CCCCC2)cc1 [Example 29, (S)-2-(tert-Butoxy)-2-(4-(4,4-dimethylpiperidin-1-yl)-2,6-dimethyl-5-(4-(piperidin-1-yl)phenyl)pyridin-3-yl)acetic acid]",< 0.1

# Same assay, conditions: Renilla, NL43, 120 h, read-out: EC50 μM
row,Molecule,EC50 [µM]
1,"Cc1cccc(-c2ccc(-c3c(C)nc(C)c([C@H](OC(C)(C)C)C(=O)O)c3N3CCC(C)(C)CC3)cc2)c1 [Example 17, (S)-2-(tert-Butoxy)-2-(4-(4,4-dimethylpiperidin-1-yl)-2,6-dimethyl-5-(3′-methyl-[1,1′-biphenyl]-4-yl)pyridin-3-yl)acetic acid]",0.053
2,"Cc1nc(C)c([C@H](OC(C)(C)C)C(=O)O)c(N2CCC(C3CC3)C2)c1-c1ccc(C(=O)NCc2ccccc2)cc1 (stereo partly drawn) [Example 55, (2S)-2-(5-(4-(Benzylcarbamoyl)phenyl)-4-(3-cyclopropylpyrrolidin-1-yl)-2,6-dimethylpyridin-3-yl)-2-(tert-butoxy)acetic acid]",0.053
3,"Cc1nc(C)c([C@H](OC(C)(C)C)C(=O)O)c(N2CCC(C)(C)CC2)c1-c1ccc(-c2ccc(Cl)cc2)cc1 [Example 11, (S)-2-(tert-Butoxy)-2-(5-(4′-chloro-[1,1′-biphenyl]-4-yl)-4-(4,4-dimethylpiperidin-1-yl)-2,6-dimethylpyridin-3-yl)acetic acid]",0.135
4,"Cc1nc(C)c([C@H](OC(C)(C)C)C(=O)O)c(N2CCC(C)(C)CC2)c1-c1ccc(CC(N)=O)cc1 [Example 26, (S)-2-(5-(4-(2-Amino-2-oxoethyl)phenyl)-4-(4,4-dimethylpiperidin-1-yl)-2,6-dimethylpyridin-3-yl)-2-(tert-butoxy)acetic acid]",0.373
